Key:
[1] = system: TUNEL-positive cells in VM tissue cultures; assay: TUNEL assay of apoptosis in VM tissue cultures; assay type: cell-based, rat; conditions: 50 μM TUDCA, p<0.01
Method: In order to examine the effects of TUDCA on apoptosis and the survival of dopamine neurons in VM tissue cultures under serum-free conditions and to determine an appropriate dosage of TUDCA, primary neuronal cultures were prepared from the VM tissue of SD rat embryos and incubated with or without the addition of TUDCA (Calbiochem, La Jolla, Calif., free base, dissolved in 0.15M (where “M” is molar concentration) NaHCO3 buffer). […] Therefore, TUDCA was added to a final concentration of 50 μM to the culture medium when the culture medium was switched to serum-free conditions after two days in vitro. Neural survival and apoptosis were determined by counting TH-positive cells and TUNEL-positive cells in the cultures two or seven days in vitro. […]
For each experimental series, pooled VM tissue from 24-32 embryos was incubated in 0.1% trypsin (Sigma, St. Louis, Mo.)/0.05% DNase (Sigma, St. Louis Mo.) at 37 degrees Celsius (° C.) for 20 minutes (min), and mechanically dissociated using a 1 milliliter (ml) Gilson pipette. […] The cell number and viabilities of dissociated cells were assessed with a hemocytometer using trypan blue dye exclusion. […]
For the cell culture experiments, the number of TUNEL-positive cells was assessed at ×400 magnification with the aid of a 400-μm square, reticule grid. […] Average number of TUNEL-positive cells was calculated and represented a value for single animals.

[2] = system: TH-positive neurons and total cells in ventral mesencephalic (VM) tissue cultures; assay: Dopamine neuron survival in serum-free ventral mesencephalic tissue cultures (TH-positive and total cell counts); assay type: cell-based, rat
Method: In order to examine the effects of TUDCA on apoptosis and the survival of dopamine neurons in VM tissue cultures under serum-free conditions and to determine an appropriate dosage of TUDCA, primary neuronal cultures were prepared from the VM tissue of SD rat embryos and incubated with or without the addition of TUDCA (Calbiochem, La Jolla, Calif., free base, dissolved in 0.15M (where “M” is molar concentration) NaHCO3 buffer). […] Therefore, TUDCA was added to a final concentration of 50 μM to the culture medium when the culture medium was switched to serum-free conditions after two days in vitro. Neural survival and apoptosis were determined by counting TH-positive cells and TUNEL-positive cells in the cultures two or seven days in vitro. A total of three separate series of cell culture experiments were performed.
For each experimental series, pooled VM tissue from 24-32 embryos was incubated in 0.1% trypsin (Sigma, St. Louis, Mo.)/0.05% DNase (Sigma, St. Louis Mo.) at 37 degrees Celsius (° C.) for 20 minutes (min), and mechanically dissociated using a 1 milliliter (ml) Gilson pipette. Following dissociation, the cells were centrifuged at 600 rotation per minute (rpm) for 5 min and the pellet was resuspended in Dulbecco's Modified Eagle's Medium (DMEM) (Gibco, Carlsbad, Calif.). The cell number and viabilities of dissociated cells were assessed with a hemocytometer using trypan blue dye exclusion. The number of 100,000 cells/cm^2 (178,000 cells per well) were plated on to four-well chamber slides (Nunc, Rochester, N.Y.) precoated with […] poly-d-lysine (Sigma, St. Louis Mo.). The viabilities of dissociated cells were over 95%. Cell cultures were incubated for 2 days in DMEM supplemented with 10% fetal calf serum at 37° C. in a 95% air/5% CO^2 humidified atmosphere. After 2 days in vitro, the culture medium was switched to serum-free N2 medium, consisting of DMEM/Ham's F 12(1:1) mixture (Gibco, Carlsbad, Calif.).
At this time point, some cultures were supplemented with TUDCA. […]

6-OHDA lesioned rats = assay: Amphetamine-induced rotation test after nigral grafting in unilateral 6-OHDA lesioned rats; assay type: in vivo, rat
From the text: A total of 24 adult female Sprague-Dawley (SD) rats, weighing about 250 grams (g) at the beginning of the experiments were used as subjects of neural grafts. Among them, 12 rats were subjected to an extensive unilateral 6-hydroxydopamine (6-OHDA) lesion of the mesostriatal dopamine (DA) system and 12 rats were normal.
The 6-OHDA lesioned rats and normal rats were randomly assigned to the TUDCA-treated (n=6 in each group) or the vehicle control (n=6 in each group) group, respectively. The rats were housed 2 per cage under a 12 hour day-night cycle with ad libitum access to food and water. They were maintained and treated in accordance with published National Institutes of Health guidelines.
For the TUDCA-treated rats, a 50 μM concentration of TUDCA was added to the media when nigral tissue was trypsinized and dissociated. Two microliters of cell suspension containing TUDCA were then stereotaxically injected into the striatum of SD rats. For the control animals, the same amount of vehicle solution was added to the media. In the first series of transplantation experiment, normal rats that received neural transplants were sacrificed 4 days post-grafting and brain sections were prepared for the terminal deoxynucleotidyl transferase (TdT)-mediated dUTP-biotin nick end labeling (TUNEL) assay to determine apoptosis in the transplantation areas. In the second series of transplantation experiments, an amphetamine-induced rotation test was used to assess the completeness of the 6-OHDA lesions prior to grafting, and repeated two and six weeks after transplantation to monitor functional effects of the neural grafts. The rats were sacrificed after the last session of the rotational behavioral test and the brain tissue was processed for tyrosine hydroxylase (TH)-immunocytochemistry. Graft survival was assessed by counting the number of TH-positive neurons in the grafts.
Two injections of 6-OHDA (hydrochloride salt, Sigma, St. Louis Mo.) were made into the right ascending mesostriatal DA pathway under equithesin anaesthesia (0.3 ml/100 g body wt. i.p.) as described previously (W.-M. Duan et al., Neuroscience 57:261-274; 1993). Briefly, a first injection of 2.5 microliter (μl) of 6-OHDA (3 microgram/microliter (μg/μl), free base, in 0.2 mg/ml ascorbate-saline) was performed at the following coordinates: 4.4 millimeter (mm) caudal to bregma; 1.2 mm lateral to midline; 7.8 mm ventral to the dural surface; with the tooth-bar set at 2.4 mm below the interaural line. A second injection of 2 μl of 6-OHDA was performed at the following coordinates; 4.0 millimeter (mm) caudal to bregma; 0.8 mm lateral to midline; 8.0 mm ventral to the dural surface; with the tooth-bar set at 3.4 mm above the interaural line. The 6-OHDA was infused at a rate of 1 μl/min, and the cannula was left in place for an additional 4 min before it was withdrawn.
Two to three weeks after the lesion surgery, the rats were given 5 milligram per kilogram (mg/kg) of d-amphetamine sulphate (Sigma, St. Louis Mo.) in saline, i.p. and their rotational behavior was monitored in automated rotometer bowls for 90 min (U. Ungerstedt et al., Brain Res. 24: 485-493; 1970). […] The rotational test was then repeated at two different time-points as mentioned in the experimental design.
A cell suspension technique was used to perform the neural transplants as previously described (A. Björklund et al., Acta. Physiol. Scand. Suppl. 522:9-18; 1983; P. Brundin et al., In: P. M. Conn, ed., Methods in Neurosciences, Lesions and Transplantation, Academic Press, San Diego, Vol 7, 1991:305-326). Briefly, VM tissue was obtained from embryos with a crown-to-rump length of 13-14 mm, corresponding to a gestational age of embryonic day 14. Dissection and preparation of the donor tissue were carried out under aseptic conditions in Hank's balanced salt solution (HBSS) (Gibco, Carlsbad, Calif.). […]

striatal tissue cultures = conditions: cited from earlier work
pancreatic islet cells = assay: Apoptosis (TUNEL) of pancreatic islet cells in vitro; assay type: cell-based; conditions: 2 days in vitro
Method: As another example, TUDCA was also effective in reducing apoptosis of pancreatic islet cells after 2 days in vitro. The number of TUNEL-positive cells was approximately 29 in non-treated controls, but only 12 in cells exposed to TUDCA. The more than 50% reduction by apoptosis by TUDCA was achieved after exposure of cells to TUDCA during the isolation procedure, followed by incubation with the bile acid during culture in vitro.

[3] = system: TUNEL-positive cells in the grafted areas; assay: TUNEL assay of apoptosis in graft areas 4 days post-transplantation; assay type: in vivo, rat; conditions: normal rats, p<0.01
Method: For the TUDCA-treated rats, a 50 μM concentration of TUDCA was added to the media when nigral tissue was trypsinized and dissociated. Two microliters of cell suspension containing TUDCA were then stereotaxically injected into the striatum of SD rats. For the control animals, the same amount of vehicle solution was added to the media. In the first series of transplantation experiment, normal rats that received neural transplants were sacrificed 4 days post-grafting and brain sections were prepared for the terminal deoxynucleotidyl transferase (TdT)-mediated dUTP-biotin nick end labeling (TUNEL) assay to determine apoptosis in the transplantation areas. […] Graft survival was assessed by counting the number of TH-positive neurons in the grafts.
A cell suspension technique was used to perform the neural transplants as previously described (A. Björklund et al., Acta. Physiol. Scand. Suppl. 522:9-18; 1983; P. Brundin et al., In: P. M. Conn, ed., Methods in Neurosciences, Lesions and Transplantation, Academic Press, San Diego, Vol 7, 1991:305-326). […] Before and after transplantation, the viabilities of the cell suspensions were assessed by the trypan blue dye exclusion method. […]

[4] = system: TH-immunoreactive neurons in intrastriatal nigral grafts; assay: Graft survival: TH-immunocytochemistry and graft volume 6 weeks after transplantation; assay type: in vivo, rat
3-NP-lesioned rat = conditions: systemic administration; cited from earlier work

SMILES: C[C@H](CCC(=O)NCCS(=O)(=O)O)[C@H]1CC[C@H]2[C@@H]3[C@@H](O)C[C@@H]4C[C@H](O)CC[C@]4(C)[C@H]3CC[C@]12C [TUDCA, tauroursodeoxycholic acid]
- number of TUNEL-positive cells, 7 DIV control versus 7 DIV TUDCA-treated cultures [1]: significantly higher in 7 DIV control cultures
- number of TH-positive cells, TUDCA-treated cultures compared with 2DIV cultures ([2]; 50 μM TUDCA added at switch to serum-free medium after 2 days in vitro, counted at 7 DIV, p>0.05): No difference
- cell loss of TH-positive neurons and total cells ([2]; 7DIV TUDCA-treated cultures, serum-free, 7 DIV control had only 30% of 2 DIV TH-positive neurons): not observed
- dose dependence of neural protective effect ([2]; VM tissue cultures, serum-free): dose-dependent manner
- mean net rotation values compared to pregrafting values (6-OHDA lesioned rats; 2 weeks after grafting, p<0.01, not in control group): significantly reduced
- rats exhibiting at least 50% reduction in net motor asymmetry compared to pre-transplantation values (6-OHDA lesioned rats; 2 weeks after transplantation, cell suspension pre-treated with 50 μM TUDCA, none of the control animals): 4 of 6
- net asymmetry values compared to control group (6-OHDA lesioned rats; 2 weeks after transplantation, p<0.05): lower net asymmetry values than the control group
- motor asymmetry scores compared to pregrafting (6-OHDA lesioned rats; 6 weeks after surgery, p<0.05, both groups): significantly reduced motor asymmetry scores
- difference in motor asymmetry scores between TUDCA-treated and control groups (6-OHDA lesioned rats; 6 weeks after surgery, p>0.05): not longer any difference
- reduction in motor asymmetry scores (6-OHDA lesioned rats; 6 weeks following transplantation, all rats of both control and TUDCA-treated groups): > 50%
- 3-nitropropionic acid (3-NP)-mediated neuronal cell death (striatal tissue cultures): significantly reduces
- number of TUNEL-positive cells (pancreatic islet cells; TUDCA during isolation and culture, non-treated controls approximately 29): 12
- reduction of apoptosis (pancreatic islet cells; versus non-treated controls): more than 50%
- number of apoptotic (TUNEL-positive) cells in the grafted areas compared to control group [3]: significantly smaller
- areas of the host striatum reinnervated by the grafts compared to control group [4]: larger
- graft volume compared to control group ([4]; p<0.05): significantly larger
- neurological deficits (3-NP-lesioned rat): ameliorate neurological deficits
- striatal degeneration (3-NP-lesioned rat): reduce striatal degeneration

— US20060204481A1, “Methods of promoting cell viability” (priority 2003, published 2006)
